These results are taken from patent US9796711B2, “Substituted pyrazolo[3,4-b]pyridin-6-carboxylic acids and method of use” (AbbVie S.àr.l., priority 2015, dated 2017).

The target of the test is T1, CFTR ΔF508 (Homo sapiens, UniProt P13569, DEL508-508).
T1 construct: bronchial epithelial cells isolated from CF patients homozygous for the CFTR ΔF508 mutation; McGill University; Asterand; University of North Carolina hAEC-CF; host or cells: primary human bronchial epithelial cells from CF patients homozygous for ΔF508
T1 sequence (P13569 with tags, fused parts or gaps DEL508-508): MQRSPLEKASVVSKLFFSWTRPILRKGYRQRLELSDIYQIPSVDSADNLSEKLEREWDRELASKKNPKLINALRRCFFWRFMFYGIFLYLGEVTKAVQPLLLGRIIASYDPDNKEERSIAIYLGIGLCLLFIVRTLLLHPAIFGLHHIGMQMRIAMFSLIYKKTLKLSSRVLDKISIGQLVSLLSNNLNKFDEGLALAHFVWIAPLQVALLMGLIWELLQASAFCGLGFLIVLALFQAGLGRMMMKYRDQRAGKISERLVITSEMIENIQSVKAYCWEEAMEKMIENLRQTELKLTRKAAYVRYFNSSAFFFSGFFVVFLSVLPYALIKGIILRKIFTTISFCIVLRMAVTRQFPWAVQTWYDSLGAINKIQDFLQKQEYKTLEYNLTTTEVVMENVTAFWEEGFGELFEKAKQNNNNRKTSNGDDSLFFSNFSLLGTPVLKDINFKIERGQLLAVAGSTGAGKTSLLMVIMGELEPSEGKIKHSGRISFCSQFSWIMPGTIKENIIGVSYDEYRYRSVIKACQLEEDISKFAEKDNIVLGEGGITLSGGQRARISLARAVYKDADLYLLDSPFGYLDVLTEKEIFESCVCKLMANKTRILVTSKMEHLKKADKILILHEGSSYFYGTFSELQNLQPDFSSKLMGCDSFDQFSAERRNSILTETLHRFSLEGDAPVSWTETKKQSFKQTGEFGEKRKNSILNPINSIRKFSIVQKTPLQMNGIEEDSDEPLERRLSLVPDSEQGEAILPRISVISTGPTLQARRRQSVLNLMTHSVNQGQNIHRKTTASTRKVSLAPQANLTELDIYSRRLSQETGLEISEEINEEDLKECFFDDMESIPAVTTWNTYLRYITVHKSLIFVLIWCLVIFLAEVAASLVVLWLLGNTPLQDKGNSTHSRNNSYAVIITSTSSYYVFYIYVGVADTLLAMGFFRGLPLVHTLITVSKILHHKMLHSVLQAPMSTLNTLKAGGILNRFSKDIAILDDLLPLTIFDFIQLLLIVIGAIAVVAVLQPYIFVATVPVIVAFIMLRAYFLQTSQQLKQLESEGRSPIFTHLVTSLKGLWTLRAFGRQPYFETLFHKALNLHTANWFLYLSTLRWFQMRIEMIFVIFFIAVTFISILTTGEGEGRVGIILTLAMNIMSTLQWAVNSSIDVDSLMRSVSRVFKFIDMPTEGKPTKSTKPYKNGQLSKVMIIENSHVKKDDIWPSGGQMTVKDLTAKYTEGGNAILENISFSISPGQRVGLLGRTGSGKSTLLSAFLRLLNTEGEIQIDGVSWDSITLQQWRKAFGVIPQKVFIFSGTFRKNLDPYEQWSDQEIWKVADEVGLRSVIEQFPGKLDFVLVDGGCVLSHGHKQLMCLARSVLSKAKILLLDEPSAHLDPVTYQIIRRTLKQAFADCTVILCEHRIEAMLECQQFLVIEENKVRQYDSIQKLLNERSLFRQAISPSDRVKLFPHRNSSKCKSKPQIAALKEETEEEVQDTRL
The test can be described thus: Chronic TECC assay on primary bronchial epithelial cells (corrector, co-corrector and potentiator). The test is classed as cell-based. The procedure:
Primary Bronchial Epithelial Cells Protocol
The TECC (Tranepithelial Clamp Circuit, EP-design) assay measures the functionality of the cystic fibrosis Transmembrane Conductance regulator (CFTR) by measuring the short circuit current (Isc) generated over the basolateral and apical membrane of lung epithelial cells. In TECC the transepithelial potential PD and transepithelial resistance (Rt)) are measured in an open circuit and transformed to Ieq using Ohm's law. 24 Wells can be measured simultaneously allowing a higher throughput compared to Ussing chambers.
For this purpose, bronchial epithelial cells isolated from CF patients homozygous for the CFTR ΔF508 mutation (hAEC-CF, Epithelix, Geneva, Switzerland; McGill University, Montreal, Qc; Asterand, Detroit, Mich.; University of North Carolina, Chapel Hill, N.C.) are plated on type IV collagen-coated Transwell® supports (Costar). Human airway epithelia are generated by provision of an air-liquid interface for 21 days to form well-differentiated polarized cultures that resemble in vivo pseudo-stratified ciliated epithelium (Fulcher, M. L., Gabriel, S., Burns, K. A., Yankaskas, J. R., Randell, S. H., 2005. Well-differentiated human airway epithelial cell cultures. Methods Mol. Med. 107, 183-206). The differentiated cells are treated with test corrector compound(s) (corrector alone or in combination with co-corrector, 4-[(2R,4R)-4-({[1-(2,2-difluoro-1,3-benzodioxol-5-yl)cyclopropyl]carbonyl}amino)-7-methoxy-3,4-dihydro-2H-chromen-2-yl]benzoic acid (G924806/A-1618261) (“acute”) or test corrector compounds, co-corrector and potentiator, N-(3-carbamoyl-5,5,7,7-tetramethyl-4,7-dihydro-5H-thieno[2,3-c]pyran-2-yl)-1H-pyrazole-5-carboxamide GLPG1837, (“chronic”) for 24 hours basolaterally to allow sufficient expression of properly folded CFTR protein on the membrane. All compound plates contained negative controls (DMSO) and positive controls (0.15 μM, 4-[(2R,4R)-4-({[1-(2,2-difluoro-1,3-benzodioxol-5-yl)cyclopropyl]carbonyl}amino)-7-(difluoromethoxy)-3,4-dihydro-2H-chromen-2-yl]benzoic acid).
For electrophysiological recording of the “chronic” experiments, the human airway epithelia are mounted in the TECC heating plate for electrophysiological measurement and kept at 37° C. The epithelia are bathed in a NaCl-Ringer solution (120 mM NaCl, 25 mM NaHCO3, 1.2 mM CaCl2, 1.2 mM MgCl2, 0.8 mM KH2PO4, 0.8 mM K2HPO4, pH 7.4, 5 mM glucose) on both the basolateral and apical sides. Test compounds (corrector, co-corrector, 4-[(2R,4R)-4-({[1-(2,2-difluoro-1,3-benzodioxol-5-yl)cyclopropyl]carbonyl}amino)-7-(difluoromethoxy)-3,4-dihydro-2H-chromen-2-yl]benzoic acid, and potentiator, N-(3-carbamoyl-5,5,7,7-tetramethyl-4,7-dihydro-5H-thieno[2,3-c]pyran-2-yl)-1H-pyrazole-5-carboxamide), are re-added to the recording solution prior to measurement. Apical amiloride is used to inhibit the endogenous ENaC currents while forskolin is applied on both apical and basolateral side to stimulate CFTR. Measurements are done during a 20 minute timeframe with recordings every 2 minutes. The increase in Ieq is used as a measure for the increased CFTR activity, EC50 values can be generated by measuring impact of different concentrations of compound on Ieq on primary cells, for this purpose each transwell is treated with a different compound concentration. Inhibitor-172, an inhibitor specific for CFTR, is used to test the specificity of the tested compounds. Raw data were normalized to percentage activity values using the equation: 100×(Sample−Negative control)/(Positive control−Negative Control).

Where [1] appears, read: chronic TECC, Ieq = calculations based on the maximum current, with co-corrector and potentiator, 24 hours.
The mark [2] stands for this setting: chronic TECC, Ieq = calculations based on the maximum current, with co-corrector and potentiator, 24 hours, read-out: EC50 (nM) (Ieq).
[3] abbreviates: chronic TECC, AUC = full area under the curve upon forskolin stimulation, with co-corrector and potentiator, 24 hours.
The mark [4] stands for this setting: chronic TECC, AUC = full area under the curve upon forskolin stimulation, with co-corrector and potentiator, 24 hours, read-out: EC50 (nM) (AUC).

Where two headings read alike, the source gives them in different places. Bounds are passed on as bounds.

In general, EC50 refers to the concentration at which the effect is half-maximal. Regarding `CC(C)c1nn(-c2cccc(N3CCOCC3)c2)c2nc(C(=O)O)cc(-c3cnc(N4CCC(C#N)CC4)nc3)c12` [compound 204, 4-[2-(4-cyanopiperidin-1-yl)pyrimidin-5-yl]-1-[3-(morpholin-4-yl)phenyl]-3-(propan-2-yl)-1H-pyrazolo[3,4-b]pyridine-6-carboxylic acid], the “% Activity at 1 μM (Ieq*)” value under setting [1] is 241%. Also, under setting [2], the EC50 was less than 30 nM.

Regarding `O=C(O)c1cc(N2CCC(CCN3CCCC3)CC2)c2c(C3CCC3)nn(-c3ccccc3)c2n1` [compound 574, 3-cyclobutyl-1-phenyl-4-{4-[2-(pyrrolidin-1-yl)ethyl]piperidin-1-yl}-1H-pyrazolo[3,4-b]pyridine-6-carboxylic acid], the “% Activity at 1 μM (AUC**)” value under setting [3] was found to be 190%. On to `CC(F)(F)c1cccc(-n2nc(C3CCC3)c3c(N4CCC(N5CCOCC5)CC4)cc(C(=O)O)nc32)c1` [compound 915], for which the “% Activity at 3 μM (AUC)” value under setting [3] turned out to be 423.3333%. Regarding `CC(C)c1nn(-c2ccc(F)cc2)c2nc(C(=O)O)cc(N3CCC(N4CCN(C5CC5)CC4)CC3)c12` [compound 754, 4-[4-(4-cyclopropylpiperazin-1-yl)piperidin-1-yl]-1-(4-fluorophenyl)-3-(propan-2-yl)-1H-pyrazolo[3,4-b]pyridine-6-carboxylic acid], under setting [3], the “% Activity at 1 μM (AUC**)” value amounted to 190%.

For `O=C(O)c1cc(N2CCC(N3CCCCC3)CC2)c2c(C3CCC3)nn(-c3ccccc3)c2n1` [compound 576, 4-([1,4′-bipiperidin]-1′-yl)-3-cyclobutyl-1-phenyl-1H-pyrazolo[3,4-b]pyridine-6-carboxylic acid], under setting [3], the “% Activity at 1 μM (AUC**)” value was found to be 183%. For `CN(C)C[C@@H](F)C1CCN(c2cc(C(=O)O)nc3c2c(C2CCC2)nn3-c2ccccc2)CC1` [compound 456, 3-cyclobutyl-4-{4-[(1S)-2-(dimethylamino)-1-fluoroethyl]piperidin-1-yl}-1-phenyl-1H-pyrazolo[3,4-b]pyridine-6-carboxylic acid], the EC50 under setting [4] was determined as 120 nM. For `O=C(O)c1cc(N2CCC(CCN3CCOCC3)CC2)c2c(C3CCC3)nn(-c3ccc(F)cc3)c2n1` [compound 810, 3-cyclobutyl-1-(4-fluorophenyl)-4-{4-[2-(morpholin-4-yl)ethyl]piperidin-1-yl}-1H-pyrazolo[3,4-b]pyridine-6-carboxylic acid], under setting [3], the “% Activity at 1 μM (AUC**)” value is on record as 191.4768%. Take `CC(C)Oc1nn(C2CCCCC2)c2nc(C(=O)O)cc(-c3ccc(CN4CC(N(C)C)C4)cc3)c12` [compound 927, 1-cyclohexyl-4-(4-{[3-(dimethylamino)azetidin-1-yl]methyl}phenyl)-3-[(propan-2-yl)oxy]-1H-pyrazolo[3,4-b]pyridine-6-carboxylic acid]: the EC50 under setting [4] was 1940 nM. As for `O=C(O)c1cc(N2CCC(N3CCOCC3)CC2)c2c(C3CCC3)nn(-c3cccc(OC(F)F)c3)c2n1` [compound 910, 3-cyclobutyl-1-[3-(difluoromethoxy)phenyl]-4-[4-(morpholin-4-yl)piperidin-1-yl]-1H-pyrazolo[3,4-b]pyridine-6-carboxylic acid], the “% Activity at 3 μM (AUC)” value under setting [3] is reported as 531.5026%. In the case of `CC(C)c1nn(-c2cc(F)cc(F)c2)c2nc(C(=O)O)cc(-c3ccc(N4CCOCC4)cc3)c12` [compound 268, 1-(3,5-difluorophenyl)-4-[4-(morpholin-4-yl)phenyl]-3-(propan-2-yl)-1H-pyrazolo[3,4-b]pyridine-6-carboxylic acid], the “% Activity at 1 μM (Ieq*)” value under setting [1] is on record as 267%. The EC50 under setting [2] is 25 nM.

Consider `O=C(O)c1cc(N2CCC(N3CCOCC3)CC2)c2c(C3CCC3)nn(-c3ccccc3)c2n1` [compound 560, 3-cyclobutyl-4-[4-(morpholin-4-yl)piperidin-1-yl]-1-phenyl-1H-pyrazolo[3,4-b]pyridine-6-carboxylic acid], for which the EC50 is less than 30 nM. For `CC(C)N1CCC2(CCN(c3cc(C(=O)O)nc4c3c(C3CCC3)nn4-c3ccc(F)cc3)CC2)CC1` [compound 890, 3-cyclobutyl-1-(4-fluorophenyl)-4-[9-(propan-2-yl)-3,9-diazaspiro[5.5]undecan-3-yl]-1H-pyrazolo[3,4-b]pyridine-6-carboxylic acid], under setting [3], the “% Activity at 1 μM (AUC**)” value is 366.6667%.
